We go through 28 compounds from patent US10899738B2 (THE REGENTS OF THE UNIVERSITY OF MICHIGAN, priority 2016, dated 2021).

Chain of menin protein (O00255 whole entry): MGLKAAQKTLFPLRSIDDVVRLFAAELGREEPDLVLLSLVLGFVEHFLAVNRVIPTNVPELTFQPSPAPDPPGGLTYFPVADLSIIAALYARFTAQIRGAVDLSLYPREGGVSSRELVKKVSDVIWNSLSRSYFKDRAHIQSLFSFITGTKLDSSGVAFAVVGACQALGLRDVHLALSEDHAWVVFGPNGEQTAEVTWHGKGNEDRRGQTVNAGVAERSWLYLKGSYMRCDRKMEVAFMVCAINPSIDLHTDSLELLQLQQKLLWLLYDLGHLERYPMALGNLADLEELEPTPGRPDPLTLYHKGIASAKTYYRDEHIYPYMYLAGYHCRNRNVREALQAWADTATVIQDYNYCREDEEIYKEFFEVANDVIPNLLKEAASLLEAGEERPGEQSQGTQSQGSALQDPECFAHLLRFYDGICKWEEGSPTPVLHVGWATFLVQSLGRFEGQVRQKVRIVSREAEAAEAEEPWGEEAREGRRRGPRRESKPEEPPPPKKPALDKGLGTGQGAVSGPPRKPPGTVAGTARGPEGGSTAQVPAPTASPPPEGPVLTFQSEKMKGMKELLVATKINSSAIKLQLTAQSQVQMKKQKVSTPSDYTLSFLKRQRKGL

One test has as its target menin protein (Homo sapiens (Human), UniProt O00255). Kind of test: biochemical. Type of test: binding. The settings on record: FP competitive binding; menin protein 4 nM, FAM-MM2 probe 2 nM. The method in brief:
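Test compounds displaced FAM-MM2 (2 nM) from 4 nM menin after 30 min equilibration at room temperature in PBS buffer containing bovine γ-globulin, 4% DMSO and Triton X-100. Binding was followed by fluorescence polarization. Competition curves were fitted by nonlinear regression to give IC50 and Ki.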
In the case of `N#Cc1ccc(OCCCNc2ncc(C(O)(c3ccccc3)C3CCCC3)cn2)cc1` (stereo not shown) [compound 124, 4-(3-((5-(cyclopentyl(hydroxy)(phenyl)methyl)pyrimidin-2-yl)amino)propoxy)benzonitrile], the “Menin Binding Affinity IC50 (μM)” value was “No inhibition”.

The same test, now with this note: FP competitive binding; menin protein 4 nM, FAM-MM2 probe 2 nM; read-out: Menin Binding Affinity IC50.
In the case of `c1ccc2c(c1)CCNC2(CC1CCNCC1)C1CCCC1` (stereo not shown) [compound 107, 1-cyclopentyl-1-(piperidin-4-ylmethyl)-1,2,3,4-tetrahydroisoquinoline], the IC50 – broadly, the concentration at which inhibition is half-maximal – stood at 299 µM.

As to `N#Cc1ccc(OCCCN2CCC(C3(c4ccccc4)NCCc4ccccc43)CC2)cc1` (stereo not shown) [compound 246, 4-(3-(4-(1-phenyl-1,2,3,4-tetrahydroisoquinolin-1-yl)piperidin-1-yl)propoxy)benzonitrile], the IC50 worked out at 35.6 µM.

For `N#CC(c1ccccc1)(C1CCN(CC2CN(c3ccc(S(=O)(=O)c4ccncc4)cc3)C2)CC1)[C@@H]1CCC[C@H]1OC(=O)N1CCC1` (mixture of isomers) [compound 222, rac-(1R,2S)-2-(cyano(phenyl)(1-((1-(4-(pyridin-4-ylsulfonyl)phenyl)azetidin-3-yl)methyl)piperidin-4-yl)methyl)cyclopentyl azetidine-1-carboxylate], the IC50 is 2 µM.

`CS(=O)(=O)CO[C@@H]1CCC[C@H]1C(C#N)(c1ccccc1)C1CCN(CC2CN(c3ccc(S(=O)(=O)c4ccncc4)cc3)C2)CC1` (mixture of isomers) [compound 254, rac-2-((1S,2R)-2-((methylsulfonyl)methoxy)cyclopentyl)-2-phenyl-2-(1-((1-(4-(pyridin-4-ylsulfonyl)phenyl)azetidin-3-yl)methyl)piperidin-4-yl)acetonitrile]: the IC50 came out at 23.2 µM.

For the compound `O=S(=O)(c1ccccc1)c1ccc(N2CC(CN3CCC(C(CN4CCCC4)(C4=CCCC4)c4ccccc4)CC3)C2)cc1` (stereo not shown) [compound 355, 4-(1-(cyclopent-1-en-1-yl)-1-phenyl-2-(pyrrolidin-1-yl)ethyl)-1-((1-(4-(phenylsulfonyl)phenyl)azetidin-3-yl)methyl)piperidine], the IC50 was found to be 0.045 µM.

`CC(=O)N1CCCC(C(C#N)(c2ccccc2)C2CCN(CCCOc3ccc(C#N)cc3)CC2)C1` (stereo not shown) [compound 307, 4-(3-(4-((1-acetylpiperidin-3-yl)(cyano)(phenyl)methyl)piperidin-1-yl)propoxy)benzontrile]: the IC50 came out at 30.6 µM.

As to `CN1CCc2ccccc2C1(C1CCCC1)C1CCN(CCCOc2ccc(C#N)cc2)CC1` (stereo not shown) [compound 28, 4-(3-(4-(1-cyclopentyl-2-methyl-1,2,3,4-tetrahydroisoquinolin-1-yl)piperidin-1-yl)propoxy)benzonitrile], the IC50 is 0.379 µM.

For the compound `CCCC(=O)N1CCCCC1C1(C2CCN(CCCOc3ccc(C#N)cc3)CC2)CN(C)Cc2ccccc21` (stereo not shown) [compound 302, 4-(3-(4-(4-(1-butyrylpiperidin-2-yl)-2-methyl-1,2,3,4-tetrahydroisoquinolin-4-yl)piperidin-1-yl)propoxy)benzonitrile], the IC50 amounted to 6.5 µM.

Turning to `CS(=O)(=O)c1ccc(OCCCN2CCC(C3(C4CCCCC4)NCCc4ccccc43)CC2)cc1` (stereo not shown) [compound 295, 1-cyclohexyl-1-(1-(3-(4-(methylsulfonyl)phenoxy)propyl)piperidin-4-yl)-1,2,3,4-tetrahydroisoquinoline], the IC50 stood at 1.9 µM.

As to `N#Cc1ccc(OCCCN2CCC(C3(C4CCc5ccccc54)NCCc4ccccc43)CC2)cc1` (stereo not shown) [compound 244, 4-(3-(4-(1-(2,3-dihydro-1H-inden-1-yl)-1,2,3,4-tetrahydroisoquinolin-1-yl)piperidin-1-yl)propoxy)benzonitrile], the IC50 worked out at 2.3 µM.

Take `O=S(=O)(c1ccc(OC2CC(N3CCC(C4(C5CCCC5)NCCc5ccccc54)CC3)C2)cc1)C1CC1` (stereo not shown) [compound 90, 1-cyclopentyl-1-(1-((1r,3r)-3-(4-(cyclopropylsulfonyl)phenoxy)cyclobutyl)piperidin-4-yl)-1,2,3,4-tetrahydroisoquinoline]: the IC50 came out at 2.4 µM.

Regarding `CS(=O)(=O)N[C@H]1CCC[C@@H]1C(C#N)(c1ccccc1)C1CCN(CC2CN(c3ccc(S(=O)(=O)c4ccncc4)cc3)C2)CC1` (mixture of isomers) [compound 267, rac-N-((1S,2R)-2-(cyano(phenyl)(1-((1-(4-(pyridin-4-ylsulfony)phenyl)azetidin-3-yl)methyl)piperidin-4-yl)methyl)cyclopentyl) methanesulfonamide], the IC50 was determined as 0.437 µM.

Take `CCN1Cc2ccccc2C(C2CCCC2)(C2CCN(CC3(C)CN(c4ccc(S(=O)(=O)c5ccncc5)cc4)C3)CC2)C1` (stereo not shown) [compound 161, 4-cyclopentyl-2-ethyl-4-(1-((3-methyl-1-(4-(pyridin-4-ylsulfonyl)phenyl)azetidin-3-yl)methyl)piperidin-4-yl)-1,2,3,4-tetrahydroisoquinoline]: the 50% inhibitory concentration (IC50) was determined as 0.021 µM.

For the compound `CO[C@H]1CCC[C@@H]1C1(C2CCN(CCCOc3ccc(C(=O)O)cc3)CC2)CNCc2ccccc21` (mixture of isomers) [compound 328, rac-4-(3-(4-(4-((1R,2S)-2-methoxycyclopentyl)-1,2,3,4-tetrahydroisoquinolin-4-yl)piperidin-1-yl)propoxy)benzoic acid], the IC50 came out at 119 µM.

As to `N#Cc1ccc2c(c1)CCN(C(=O)CN1CCC(C3(C4CCCC4)NCCc4ccccc43)CC1)C2` (stereo not shown) [compound 83, 2-(2-(4-(1-cyclopentyl-1,2,3,4-tetrahydroisoquinolin-1-yl)piperidin-1-yl)acetyl)-1,2,3,4-tetrahydroisoquinoline-6-carbonitrile], the IC50 came out at 0.847 µM.

As for `O=C(Cc1ccc(S(=O)(=O)C2CC2)cc1)N1CCc2cc(C3(C4CCCC4)NCCc4ccccc43)ccc2C1` (stereo not shown) [compound 100, 1-(1-cyclopentyl-1,2,3,3′,4,4′-hexahydro-[1,6′-biisoquinolin]-2′-(1′H)-yl)-2-(4-(cyclopropylsulfonyl)phenyl) ethan-1-one], the IC50 worked out at 4.7 µM.

Turning to `CNC(=O)O[C@H]1CCC[C@@H]1C(C#N)(c1ccccc1)C1CCN(CC2CN(c3ccc(C(C)(C)C)cc3)C2)CC1` (mixture of isomers) [compound 422, rac-(1S,2R)-2-((1-((1-(4-(tert-butyl)phenyl)azetidin-3-yl)methyl)piperidin-4-yl)(cyano)(phenyl)methyl) cyclopentyl methylcarbamate], the IC50 amounted to 0.028 µM.

As to `O=S(=O)(c1ccncc1)c1ccc(N2CC(CN3CCC(C4(C5CCCC5)CN(CC5CC5)Cc5ccccc54)CC3)C2)cc1` (stereo not shown) [compound 50, 4-cyclopentyl-2-(cyclopropylmethyl)-4-(1-((1-(4-(pyridin-4-ylsulfonyl)phenyl)azetidin-3-yl)methyl)piperidin-4-yl)-1,2,3,4-tetrahydroisoquinoline], the IC50 turned out to be 0.007 µM.

Take `COCC[C@H]1CCC[C@@H]1C(C#N)(c1ccccc1)C1CCN(CC2CN(c3ccc(S(=O)(=O)c4ccnc(C)c4)cc3)C2)CC1` (mixture of isomers) [compound 336, rac-2-((1S,2R)-2-(2-methoxyethyl)cyclopentyl)-2-(1-((1-(4-((2-methylpyridin-4-yl)sulfonyl)phenyl)azetidin-3-yl)methyl)piperidin-4-yl)-2-phenylacetonitrile]: the IC50 stood at 29.4 µM.

In the case of `CN1Cc2cccc(F)c2C(C2CCCC2)(C2CCN(CC3CN(c4ccc(C#N)cc4)C3)CC2)C1` (stereo not shown) [compound 33, 4-(3-((4-(4-cyclopentyl-5-fluoro-2-methyl-1,2,3,4-tetrahydroisoquinolin-4-yl)piperidin-1-yl)methyl)azetidin-1-yl)benzonitrile], the IC50 is 0.019 µM.

With `N#Cc1ccc(OCCCN2CCC(C3(C4CCCC4)C(=O)NCc4ccccc43)CC2)cc1` (stereo not shown) [compound 24, 4-(3-(4-(4-cyclopentyl-3-oxo-1,2,3,4-tetrahydroisoquinolin-4-yl)piperidin-1-yl)propoxy)benzonitrile], the IC50 worked out at 0.416 µM.

On to `N#Cc1ccc(OCCCN2CCC(C3(C4CCCC4)NCCc4ccc(F)cc43)CC2)cc1` (stereo not shown) [compound 22, 4-(3-(4-(1-cyclopentyl-7-fluoro-1,2,3,4-tetrahydroisoquinolin-1-yl)piperidin-1-yl)propoxy)benzonitrile], for which the IC50 was determined as 0.473 µM.

For the compound `c1ccc(CN2CCC(C3(C4CCCC4)NCCc4ccccc43)CC2)cc1` (stereo not shown) [Cpd. No. 71, 1-(1-benzylpiperidin-4-yl)-1-cyclopentyl-1,2,3,4-tetrahydroisoquinoline], the IC50 amounted to 190 µM.

With `CCO[C@@H]1CCC[C@H]1C(C#N)(c1ccccc1)C1CCN(CC2CN(c3ccc(S(=O)(=O)c4ccncc4)cc3)C2)CC1` (mixture of isomers) [compound 199, rac-2-((1S,2R)-2-ethoxycyclopentyl)-2-phenyl-2-(1-((1-(4-(pyridin-4-ylsulfonyl)phenyl)azetidin-3-yl)methyl)piperidin-4-yl)acetonitrile], the IC50 is 9 µM.

Consider `CNC(=O)O[C@@H]1CCC[C@H]1C(Cn1ccnc1)(c1ccccc1)C1CCN(CC2CN(c3ccc(S(=O)(=O)c4ccccc4)cc3)C2)CC1` (mixture of isomers) [compound 237, rac-(1R,2S)-2-(2-(1H-imidazol-1-yl)-1-phenyl-1-(1-((1-(4-(phenylsulfonyl)phenyl)azetidin-3-yl)methyl)piperidin-4-yl)ethyl)cyclopentyl methylcarbamate], for which the IC50 turned out to be 0.042 µM.

For the compound `N#Cc1ccc(-c2ccc(N3CCC(C4(C5CCCC5)NCCc5ccccc54)CC3)cc2)cc1` (stereo not shown) [compound 77, 4′-(4-(1-cyclopentyl-1,2,3,4-tetrahydroisoquinolin-1-yl)piperidin-1-yl)-[1,1′-biphenyl]-4-carbonitrile], the IC50 came to 2580 µM.

On to `N#Cc1ccc(OCCCN2CCC(C(C#N)(Cc3ccncc3)c3ccccc3)CC2)cc1` (stereo not shown) [compound 344, 4-(3-(4-(1-cyano-1-phenyl-2-(pyridin-4-yl)ethyl)piperidin-1-yl)propoxy)benzonitrile], for which the half-maximal inhibitory concentration (IC50) was determined as 180 µM.
